According to patent EP3075724A1, “SOLID FORM OF AGOMELATINE” (F.I.S.- Fabbrica Italiana Sintetici S.p.A., priority 2015, dated 2016):

Legend:
Kinetic dissolution test = format: physicochemical; settings: 200 mg tablet, 100 mL saline solution, paddle 100 rpm, 37 °C
Description: The tests were performed in duplicate on 13 mm tablets containing 200 mg agomelatine (form I) or agomelatine pyruvic acid cocrystal, which were prepared on a Digital Hydraulic Press at a force of about 8 metric tons. The tablets were placed in 100 mL of saline solution in a paddle apparatus at 100 rpm and 37 °C ± 0.5 °C. A 3 mL sample was withdrawn from each vessel at fixed time points, filtered through a 0.45 µm filter (discarding the first 1 mL), analyzed by HPLC, and compared to a previously prepared reference standard calibration curve. Immediately after each sampling, the solutions in the vessels were replenished with 3 mL of saline.

[1] = Stability tests (chemical stability by HPLC); format: physicochemical
Description: Agomelatine pyruvic acid cocrystal according to Example 1 was subjected to stability tests for seven days at 25 °C, 60 % RH and 40 °C, 75 % RH, respectively.

[2] = cited from earlier work
[3] = 5 min, Ø (average of #1 and #2)
[4] = 15 min, Ø (average of #1 and #2)
[5] = 30 min, Ø (average of #1 and #2)
[6] = 45 min, Ø (average of #1 and #2)
[7] = 60 min, Ø (average of #1 and #2)
[8] = 90 min, Ø (average of #1 and #2)
[9] = 120 min, Ø (average of #1 and #2)
[10] = 180 min, Ø (average of #1 and #2)
[11] = 240 min, Ø (average of #1 and #2)
[12] = 300 min, Ø (average of #1 and #2)
[13] = 360 min, Ø (average of #1 and #2)
[14] = 420 min, Ø (average of #1 and #2)

Row | kinetic dissolution in aqueous medium (Kinetic dissolution test; 5 min, #1) [µg/mL] | kinetic dissolution in aqueous medium (Kinetic dissolution test; 5 min, #2) [µg/mL] | kinetic dissolution in aqueous medium (Kinetic dissolution test; [3]) [µg/mL] | kinetic dissolution in aqueous medium (Kinetic dissolution test; 15 min, #1) [µg/mL] | kinetic dissolution in aqueous medium (Kinetic dissolution test; 15 min, #2) [µg/mL] | kinetic dissolution in aqueous medium (Kinetic dissolution test; [4]) [µg/mL] | kinetic dissolution in aqueous medium (Kinetic dissolution test; 30 min, #1) [µg/mL] | kinetic dissolution in aqueous medium (Kinetic dissolution test; 30 min, #2) [µg/mL] | kinetic dissolution in aqueous medium (Kinetic dissolution test; [5]) [µg/mL] | kinetic dissolution in aqueous medium (Kinetic dissolution test; 45 min, #1) [µg/mL] | kinetic dissolution in aqueous medium (Kinetic dissolution test; 45 min, #2) [µg/mL] | kinetic dissolution in aqueous medium (Kinetic dissolution test; [6]) [µg/mL] | kinetic dissolution in aqueous medium (Kinetic dissolution test; 60 min, #1) [µg/mL] | kinetic dissolution in aqueous medium (Kinetic dissolution test; 60 min, #2) [µg/mL] | kinetic dissolution in aqueous medium (Kinetic dissolution test; [7]) [µg/mL] | kinetic dissolution in aqueous medium (Kinetic dissolution test; 90 min, #1) [µg/mL] | kinetic dissolution in aqueous medium (Kinetic dissolution test; 90 min, #2) [µg/mL] | kinetic dissolution in aqueous medium (Kinetic dissolution test; [8]) [µg/mL] | kinetic dissolution in aqueous medium (Kinetic dissolution test; 120 min, #1) [µg/mL] | kinetic dissolution in aqueous medium (Kinetic dissolution test; 120 min, #2) [µg/mL] | SMILES | further results
1 | 5.21 | 5.45 | 5.33 | 12.55 | 13.42 | 12.99 | 22.75 | 24.10 | 23.43 | 33.41 | 37.03 | 35.22 | 42.71 | 50.65 | 46.68 | 70.03 | 77.31 | 73.67 | 84.65 | 90.24 | COc1ccc2cccc(CCNC(C)=O)c2c1 [Pyruvic Acid Cocrystal] | kinetic dissolution in aqueous medium (Kinetic dissolution test; [9]): 87.45 µg/mL; kinetic dissolution in aqueous medium (Kinetic dissolution test; 180 min, #1): 114.37 µg/mL; kinetic dissolution in aqueous medium (Kinetic dissolution test; 180 min, #2): 114.58 µg/mL; kinetic dissolution in aqueous medium (Kinetic dissolution test; [10]): 114.48 µg/mL; kinetic dissolution in aqueous medium (Kinetic dissolution test; 240 min, #1): 131.99 µg/mL; kinetic dissolution in aqueous medium (Kinetic dissolution test; 240 min, #2): 131.80 µg/mL; kinetic dissolution in aqueous medium (Kinetic dissolution test; [11]): 131.9 µg/mL; kinetic dissolution in aqueous medium (Kinetic dissolution test; 300 min, #1): 144.64 µg/mL; kinetic dissolution in aqueous medium (Kinetic dissolution test; 300 min, #2): 144.74 µg/mL; kinetic dissolution in aqueous medium (Kinetic dissolution test; [12]): 144.69 µg/mL; kinetic dissolution in aqueous medium (Kinetic dissolution test; 360 min, #1): 155.52 µg/mL; kinetic dissolution in aqueous medium (Kinetic dissolution test; 360 min, #2): 156.49 µg/mL; kinetic dissolution in aqueous medium (Kinetic dissolution test; [13]): 156.01 µg/mL; kinetic dissolution in aqueous medium (Kinetic dissolution test; 420 min, #1): 165.30 µg/mL; kinetic dissolution in aqueous medium (Kinetic dissolution test; 420 min, #2): 163.14 µg/mL; kinetic dissolution in aqueous medium (Kinetic dissolution test; [14]): 164.22 µg/mL; chemical stability as determined by HPLC ([1]; seven days at 25 °C, 60 % RH): excellent chemical stability; chemical stability as determined by HPLC ([1]; seven days at 40 °C, 75 % RH): excellent chemical stability
2 | 3.39 | 4.38 | 3.89 | 8.20 | 9.32 | 8.76 | 14.80 | 15.58 | 15.19 | 22.55 | 23.81 | 23.18 | 30.05 | 31.53 | 30.79 | 47.49 | 50.84 | 49.17 | 55.73 | 58.72 | COc1ccc2cccc(CCNC(C)=O)c2c1 [Form I, N-[2-(7-methoxynaphthalen-1-yl)ethyl]acetamide] | kinetic dissolution in aqueous medium (Kinetic dissolution test; [9]): 57.23 µg/mL; kinetic dissolution in aqueous medium (Kinetic dissolution test; 180 min, #1): 75.07 µg/mL; kinetic dissolution in aqueous medium (Kinetic dissolution test; 180 min, #2): 74.85 µg/mL; kinetic dissolution in aqueous medium (Kinetic dissolution test; [10]): 74.96 µg/mL; kinetic dissolution in aqueous medium (Kinetic dissolution test; 240 min, #1): 91.32 µg/mL; kinetic dissolution in aqueous medium (Kinetic dissolution test; 240 min, #2): 86.85 µg/mL; kinetic dissolution in aqueous medium (Kinetic dissolution test; [11]): 89.09 µg/mL; kinetic dissolution in aqueous medium (Kinetic dissolution test; 300 min, #1): 102.54 µg/mL; kinetic dissolution in aqueous medium (Kinetic dissolution test; 300 min, #2): 96.76 µg/mL; kinetic dissolution in aqueous medium (Kinetic dissolution test; [12]): 99.65 µg/mL; kinetic dissolution in aqueous medium (Kinetic dissolution test; 360 min, #1): 112.42 µg/mL; kinetic dissolution in aqueous medium (Kinetic dissolution test; 360 min, #2): 106.36 µg/mL; kinetic dissolution in aqueous medium (Kinetic dissolution test; [13]): 109.39 µg/mL; kinetic dissolution in aqueous medium (Kinetic dissolution test; 420 min, #1): 121.98 µg/mL; kinetic dissolution in aqueous medium (Kinetic dissolution test; 420 min, #2): 114.14 µg/mL; kinetic dissolution in aqueous medium (Kinetic dissolution test; [14]): 118.06 µg/mL
3 | – | – | – | – | – | – | – | – | – | – | – | – | – | – | – | – | – | – | – | – | COc1ccc2cccc(CCNC(C)=O)c2c1 [agomelatine, N-[2-(7-methoxynaphthalen-1-yl)ethyl]acetamide] | solubility in various organic solvents ([2]; e.g. ethanol, methanol, methylene chloride, freely soluble): > 100 mg/mL; solubility in purified water ([2]; purified water, practically insoluble): < 0.1 mg/mL
